The assay relates to A549 human lung epithelial cells. Briefly: H2O2 oxidative stress protection, live cell count (trypan blue dye exclusion). The assay is classed as cell-based. The settings on record: for Live cell Number: 4 hours, A549. The protocol:
A549 human lung epithelial cells were seeded and treated with 2.5 mM H202 with or without lipid for 4 hours. Cells were washed and trypsinized and live cells were counted. Test Sample Composition—The extract product titled LP 0817, example 1, was mixed with water at a 30% concentration yielding a compostion of Lipid Extract 23%, Lipoic Acid 7%, Water 70%. Lipid extract (produced by alcohol extraction process cited in example 1 without lipoic acid component)—23% lipids/77% water and lipoic acid at 7% concentration tested separately. 210 mg lipoic acid was dissolved with 2.8 ml. DMSO. (93% DMSO and 7% Lipoic Acid.) This is 100% solution. This working solution was diluted to 5%, 2%, 1% to use for hydrogen peroxide study. A549 human lung epithelial cells (1.5×10^5/well in 6 well dish) were seeded and treated with 2.5 mM H202 with or without lipid for 4 hours. Cells were washed and trypsinized and live cells (trypan blue dye exclusion assay) were counted. Cell number is represented as 10^4.

Several values for one entry are separate records, joined by “and”; a condition that tells them apart may be missing. Equal entries are not always repeated.

For `O=C(O)CCCCC1CCSS1` (stereo not shown) [Lipoic Acid 7%, lipoic acid], the “Live cell Number” value is 13 10^4 and 14 10^4 (7% lipoic acid in DMSO working solution diluted to 1% + H2O2 (2.5 mM)); 14 10^4 (7% lipoic acid in DMSO working solution diluted to 2% + H2O2 (2.5 mM)); 10 10^4 and 12 10^4 (7% lipoic acid in DMSO working solution diluted to 5% + H2O2 (2.5 mM)). Further, the “Protection of cells from H2O2 treatment/damage” value (A549, 2.5 mM H2O2, 4 hours) is “Neither Lipid extract nor Lipoic acid protected the cells from H202 damage”.

(Values after patent publication US20080003244A1, “Inflammation and Oxidative Stress Reducing Compostion for Topical or Oral Administration” (priority 2006, published 2008).)
